We go through 27 molecules from ChEMBL document CHEMBL1201862, “PubChem BioAssay data set” (2004).

Active and inactive are the calls of the source.

For assay [1], the target named is T1, Replicative DNA helicase DnaB (Mycobacterium tuberculosis, UniProt P9WMR3).
T1 sequence (P9WMR3 whole entry): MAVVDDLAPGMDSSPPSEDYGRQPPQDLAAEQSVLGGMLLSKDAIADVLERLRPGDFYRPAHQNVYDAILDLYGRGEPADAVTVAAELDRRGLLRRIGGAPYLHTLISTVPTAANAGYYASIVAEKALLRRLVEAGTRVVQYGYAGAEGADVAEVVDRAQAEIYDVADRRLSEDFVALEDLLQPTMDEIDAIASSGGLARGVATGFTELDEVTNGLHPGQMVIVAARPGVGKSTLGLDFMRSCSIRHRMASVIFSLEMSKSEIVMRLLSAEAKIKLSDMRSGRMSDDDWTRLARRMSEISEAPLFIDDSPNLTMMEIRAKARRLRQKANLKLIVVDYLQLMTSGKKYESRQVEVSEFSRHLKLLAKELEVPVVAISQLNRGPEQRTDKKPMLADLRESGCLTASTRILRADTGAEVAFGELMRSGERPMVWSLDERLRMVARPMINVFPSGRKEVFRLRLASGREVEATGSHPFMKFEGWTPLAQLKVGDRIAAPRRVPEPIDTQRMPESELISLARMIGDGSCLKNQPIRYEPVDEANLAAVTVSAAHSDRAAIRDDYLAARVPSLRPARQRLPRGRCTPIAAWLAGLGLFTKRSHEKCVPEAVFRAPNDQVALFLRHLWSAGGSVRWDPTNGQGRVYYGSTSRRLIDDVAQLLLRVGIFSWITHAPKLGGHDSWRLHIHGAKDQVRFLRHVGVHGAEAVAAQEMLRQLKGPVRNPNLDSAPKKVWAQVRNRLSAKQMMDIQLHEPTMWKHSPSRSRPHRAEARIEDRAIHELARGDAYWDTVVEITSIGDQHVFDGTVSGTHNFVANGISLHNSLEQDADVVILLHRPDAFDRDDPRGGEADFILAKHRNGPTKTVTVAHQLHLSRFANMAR
Briefly: DnaB intein splicing inhibitors, dose response, biochemical, cell-free fluorescence (AID 449749). Format: functional.

For the next assay, the target named is T2, Protein RecA (Mycobacterium tuberculosis, UniProt P9WHJ3).
T2 sequence (P9WHJ3 whole entry): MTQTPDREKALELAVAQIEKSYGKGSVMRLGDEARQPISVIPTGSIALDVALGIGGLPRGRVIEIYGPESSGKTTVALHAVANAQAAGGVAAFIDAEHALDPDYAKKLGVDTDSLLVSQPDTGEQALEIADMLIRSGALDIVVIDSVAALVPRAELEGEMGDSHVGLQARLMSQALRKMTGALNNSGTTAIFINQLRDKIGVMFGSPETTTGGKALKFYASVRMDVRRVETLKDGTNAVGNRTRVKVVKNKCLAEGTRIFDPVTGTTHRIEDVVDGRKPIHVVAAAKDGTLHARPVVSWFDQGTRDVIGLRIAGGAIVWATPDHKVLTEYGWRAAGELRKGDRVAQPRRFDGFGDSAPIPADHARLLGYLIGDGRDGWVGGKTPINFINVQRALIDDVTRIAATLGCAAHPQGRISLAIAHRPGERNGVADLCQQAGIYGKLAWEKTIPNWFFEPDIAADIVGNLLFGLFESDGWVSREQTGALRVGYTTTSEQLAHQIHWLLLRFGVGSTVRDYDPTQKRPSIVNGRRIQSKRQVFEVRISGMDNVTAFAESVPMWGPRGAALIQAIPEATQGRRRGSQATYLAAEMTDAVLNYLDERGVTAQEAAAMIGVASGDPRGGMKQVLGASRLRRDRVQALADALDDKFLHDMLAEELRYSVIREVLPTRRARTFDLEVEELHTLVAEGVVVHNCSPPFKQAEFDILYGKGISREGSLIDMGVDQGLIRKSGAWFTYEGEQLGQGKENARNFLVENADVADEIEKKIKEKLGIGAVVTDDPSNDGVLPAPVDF
Briefly: Fluorescence Cell-Free Homogeneous Dose Retest to Identify Inhibitors of RecA-Intein Splicing Activity. [Related pubchem assays (depositor defined):AID2097, AID2223, AID489010, AID492950]. Format: functional.

Assay [2] concerns the target T3, Rac GTPase-activating protein 1 (Homo sapiens, UniProt Q9H0H5).
T3 sequence (Q9H0H5 whole entry): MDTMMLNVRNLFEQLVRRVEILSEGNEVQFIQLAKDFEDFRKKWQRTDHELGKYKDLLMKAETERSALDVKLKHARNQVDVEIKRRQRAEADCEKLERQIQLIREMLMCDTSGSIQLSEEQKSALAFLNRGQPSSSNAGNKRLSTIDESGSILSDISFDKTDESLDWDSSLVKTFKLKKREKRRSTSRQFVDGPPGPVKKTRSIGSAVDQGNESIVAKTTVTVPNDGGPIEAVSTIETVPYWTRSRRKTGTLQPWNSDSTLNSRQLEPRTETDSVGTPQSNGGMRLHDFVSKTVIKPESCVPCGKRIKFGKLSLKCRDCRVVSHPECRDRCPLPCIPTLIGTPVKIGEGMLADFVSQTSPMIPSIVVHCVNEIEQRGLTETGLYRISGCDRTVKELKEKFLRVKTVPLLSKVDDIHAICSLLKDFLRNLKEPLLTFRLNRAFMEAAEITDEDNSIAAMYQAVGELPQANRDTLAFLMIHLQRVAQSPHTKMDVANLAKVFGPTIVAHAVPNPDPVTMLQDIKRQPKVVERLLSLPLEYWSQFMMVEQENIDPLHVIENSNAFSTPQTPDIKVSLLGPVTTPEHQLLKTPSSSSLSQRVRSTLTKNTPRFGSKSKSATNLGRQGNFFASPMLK
Nature of the assay: blockers of MgcRacGAP-driven Rac1 GTP hydrolysis – biochemical, ADP Hunter fluorescence, primary and confirmatory, confirmation (AID 624330). In kind it is functional.

The target of assay [3] is T4, High affinity choline transporter 1 (Homo sapiens, UniProt Q9GZV3).
T4 sequence (Q9GZV3 whole entry): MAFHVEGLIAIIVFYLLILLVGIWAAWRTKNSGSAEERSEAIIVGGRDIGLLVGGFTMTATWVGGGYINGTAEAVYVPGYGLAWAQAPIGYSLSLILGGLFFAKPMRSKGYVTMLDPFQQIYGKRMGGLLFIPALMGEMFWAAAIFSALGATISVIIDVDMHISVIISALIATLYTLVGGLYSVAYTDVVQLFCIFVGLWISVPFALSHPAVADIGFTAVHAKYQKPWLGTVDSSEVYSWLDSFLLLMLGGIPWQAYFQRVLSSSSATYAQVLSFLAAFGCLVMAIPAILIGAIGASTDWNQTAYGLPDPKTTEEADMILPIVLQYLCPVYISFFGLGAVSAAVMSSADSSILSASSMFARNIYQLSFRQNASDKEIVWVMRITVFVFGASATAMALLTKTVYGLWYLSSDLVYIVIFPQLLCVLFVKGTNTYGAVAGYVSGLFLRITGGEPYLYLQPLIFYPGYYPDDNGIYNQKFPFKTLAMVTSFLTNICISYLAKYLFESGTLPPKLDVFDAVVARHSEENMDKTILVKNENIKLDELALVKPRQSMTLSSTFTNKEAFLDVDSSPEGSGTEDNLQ
Briefly: human choline transporter blockers, potency – cell-based, 5-point CRC, membrane potential dye, dose response (AID 504840). In kind it is functional.

The target in assay [4] is Luciferin 4-monooxygenase (Photinus pyralis, UniProt P08659). Briefly: inhibition of purified Photinus pyralis luciferase – biochemical, luminescence, dose response (AID 1891).
Luciferin 4-monooxygenase, sequence (P08659 whole entry): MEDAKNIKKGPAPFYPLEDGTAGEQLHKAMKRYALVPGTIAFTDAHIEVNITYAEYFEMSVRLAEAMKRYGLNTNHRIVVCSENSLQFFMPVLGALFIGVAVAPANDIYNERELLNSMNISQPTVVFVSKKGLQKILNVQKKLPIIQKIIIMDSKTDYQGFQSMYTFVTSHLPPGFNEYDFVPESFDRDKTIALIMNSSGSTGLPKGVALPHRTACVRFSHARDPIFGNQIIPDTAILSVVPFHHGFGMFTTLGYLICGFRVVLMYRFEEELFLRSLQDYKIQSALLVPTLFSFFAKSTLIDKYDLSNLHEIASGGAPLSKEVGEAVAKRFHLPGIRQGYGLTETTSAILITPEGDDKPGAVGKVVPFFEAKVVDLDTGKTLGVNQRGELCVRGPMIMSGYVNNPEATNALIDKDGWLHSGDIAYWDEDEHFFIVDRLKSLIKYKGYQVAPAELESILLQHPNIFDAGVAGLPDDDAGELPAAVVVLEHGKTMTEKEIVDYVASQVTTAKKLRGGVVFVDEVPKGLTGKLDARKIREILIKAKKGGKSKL
Assay [5] can be described thus: Luminescence Cell-Based Dose Confirmation HTS to Identify Inhibitors of Platelet Dense Granule Release. [Related pubchem assays: 1663 (Primary HTS), 1678 (Summary of Project)]. In kind it is functional.
For assay [6], the target named is T5, Heat shock factor protein 1 (Mus musculus, UniProt P38532).
T5 sequence (P38532 whole entry): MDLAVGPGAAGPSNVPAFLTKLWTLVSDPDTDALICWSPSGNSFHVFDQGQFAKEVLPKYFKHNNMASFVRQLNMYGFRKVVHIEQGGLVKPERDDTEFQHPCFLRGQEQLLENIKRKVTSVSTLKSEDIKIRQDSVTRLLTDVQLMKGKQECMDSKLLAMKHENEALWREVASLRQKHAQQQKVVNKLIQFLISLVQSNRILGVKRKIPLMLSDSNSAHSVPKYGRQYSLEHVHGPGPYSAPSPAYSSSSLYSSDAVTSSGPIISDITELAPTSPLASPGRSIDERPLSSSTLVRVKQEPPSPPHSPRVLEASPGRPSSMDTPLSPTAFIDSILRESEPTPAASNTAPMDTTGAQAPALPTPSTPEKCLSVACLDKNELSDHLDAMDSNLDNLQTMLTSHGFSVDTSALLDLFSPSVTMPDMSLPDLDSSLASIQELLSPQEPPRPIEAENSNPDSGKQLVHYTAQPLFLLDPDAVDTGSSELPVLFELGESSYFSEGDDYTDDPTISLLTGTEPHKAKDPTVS
Nature of the assay: enhancement of HSF1-driven luciferase signal – cell-based, NIH3T3, luminescence, dose retest, confirmation (AID 435004).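 Note: stress induced by proteasome inhibitor MG132 added 30 min after compound; luciferase reporter driven by HSF1 response element in NIH3T3 cells; actives raise luminescence as potentiators of the MG132 stress response.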 Format: functional.

A short description of assay [7]: viability of uninfected HEp-2 cells – cell-based, HTS, cytotoxicity control for RSV inhibitor project, dose response (AID 2410). Format: functional. The following applies: human respiratory syncytial virus.
The next assay addresses Cytochrome P450 2C19 (Homo sapiens, UniProt P33261). Briefly: Cytochrome panel assay with activity outcomes. Panel member name: p450-cyp2c19 Compounds with AC50 equal or less than 10 uM are considered active. Format: functional. The following applies: read-out: AC50.
A further assay concerns the target Cytochrome P450 3A4 (Homo sapiens, UniProt P08684).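 Note: CYP3A4 tested as one member of a cytochrome P450 panel screen.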

Cytochrome P450 3A4, sequence (P08684 whole entry): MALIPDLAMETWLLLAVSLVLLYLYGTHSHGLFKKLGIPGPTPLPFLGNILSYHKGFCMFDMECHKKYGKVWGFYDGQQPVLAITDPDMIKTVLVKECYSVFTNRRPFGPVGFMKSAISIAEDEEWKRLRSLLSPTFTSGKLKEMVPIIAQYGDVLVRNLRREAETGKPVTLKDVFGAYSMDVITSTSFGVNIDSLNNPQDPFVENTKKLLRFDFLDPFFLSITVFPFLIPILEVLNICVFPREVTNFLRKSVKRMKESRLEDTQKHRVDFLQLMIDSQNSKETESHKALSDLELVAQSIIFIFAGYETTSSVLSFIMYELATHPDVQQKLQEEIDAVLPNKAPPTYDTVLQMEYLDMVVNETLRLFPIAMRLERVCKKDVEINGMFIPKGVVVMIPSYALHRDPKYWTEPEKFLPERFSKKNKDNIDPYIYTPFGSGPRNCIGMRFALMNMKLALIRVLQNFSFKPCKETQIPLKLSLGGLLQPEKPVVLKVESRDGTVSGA
Cytochrome P450 2C19, sequence (P33261 whole entry): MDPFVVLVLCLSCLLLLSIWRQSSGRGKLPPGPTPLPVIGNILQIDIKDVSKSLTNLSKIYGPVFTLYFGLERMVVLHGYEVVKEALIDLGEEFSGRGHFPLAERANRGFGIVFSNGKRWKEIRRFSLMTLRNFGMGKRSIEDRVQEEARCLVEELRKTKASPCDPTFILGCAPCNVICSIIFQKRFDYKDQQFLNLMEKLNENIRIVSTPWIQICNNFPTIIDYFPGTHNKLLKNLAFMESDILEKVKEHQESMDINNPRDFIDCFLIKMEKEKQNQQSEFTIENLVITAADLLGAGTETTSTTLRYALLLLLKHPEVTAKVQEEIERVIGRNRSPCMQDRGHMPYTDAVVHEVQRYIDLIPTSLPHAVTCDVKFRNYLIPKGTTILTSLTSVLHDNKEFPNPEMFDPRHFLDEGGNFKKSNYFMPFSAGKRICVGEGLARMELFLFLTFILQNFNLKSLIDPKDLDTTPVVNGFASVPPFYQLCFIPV

Usually AC50 stands for the concentration giving half of the maximal activity seen. Usually EC50 stands for the concentration that produces a half-maximal response. On to `CC(CCn1cccn1)NC(=O)CCc1nnc(CCc2ccccc2)o1` (stereo not given), for which, in [1], the AC50 was > 380 µM (inactive). Besides, the EC50 on Protein RecA was > 380 µM (inactive).

The IC50 is the concentration that inhibits the measured activity by half. In the case of `CCn1cnc2cc(NCc3ccc(OC)cc3)ccc21`, the IC50 in assay [2] is 92.1 µM (active).

As for `Cc1cc(C)c(C)c(S(=O)(=O)Nc2ccc(O)cc2)c1C`, the IC50 in assay [2] is 45.7 µM (active).

For `CCOc1ccccc1/C=C/C(=O)NCC(=O)N1CCC(N(C)C2CCCCC2C)CC1` (stereo not given), the concentration for half-maximal inhibition (IC50) in assay [3] was 14.8 µM (active).

In the case of `O=C(NCCCn1ccnc1)/C(=C\c1ccc(Br)cc1)NC(=O)c1ccccc1`, in assay [3], the IC50 was 15.1 µM (active).

Take `COc1ccc(C(CNC(=O)c2cc(S(=O)(=O)NCc3ccccc3)ccc2C)N2CCOCC2)cc1` (stereo not given): the IC50 in assay [3] is 11 µM (active).

`C[N+](C)(C)CC=O` [BETAINE ALDEHYDE CHLORIDE]: the IC50 in assay [3] was 15.1 µM (active).

In the case of `CCCNc1nc2c(c(=O)n(C)c(=O)n2C)n1CCC(C)C`, the IC50 in assay [3] is 6.03 µM (active).

Take `Cc1ccc(-c2[nH]c3ccccc3c2C(C[N+](=O)[O-])c2ccco2)cc1` (stereo not given): the EC50 in [4] was > 112 µM (not active); in assay [5] it was > 112 µM (not active); in assay [6], > 260 µM (inactive).

Consider `Cc1cc(C(=O)CSc2n[nH]c(N)n2)c(C)n1-c1cc(F)ccc1F`, for which the IC50 in assay [3] was 11.2 µM (active).

In the case of `CC(Oc1ccccc1Cl)C(=O)Nc1ccc(S(=O)(=O)Nc2nccs2)cc1` (stereo not given), the IC50 in assay [3] was 5.01 µM (active).

Turning to `COc1ccc(N2C(=O)/C(=C\c3ccco3)N=C2SCC(=O)NC(C)(C)C)cc1Cl`, the AC50 in assay [1] was > 380 µM (inactive). For the same molecule, on Protein RecA, the half-maximal effective concentration (EC50) is 20.7 µM (inconclusive).

Turning to `COc1ccccc1N1CCN(/N=C/c2ccc(O)cc2O)CC1`, the concentration for half-maximal inhibition (IC50) in [2] was 48 µM (active).

For the molecule `Nc1cc2c(cc1N)-c1ccccc1C2`, the IC50 in assay [2] is 23 µM (active).

As to `Cc1ccc(S(=O)(=O)N2CCCCC2)cc1NC(=O)CNCc1ccco1`, the IC50 in assay [2] was 198 µM (active).

Regarding `COCCCNC(=O)c1ccc(OC)c(OC2CCN(C(C)C)CC2)c1`, the IC50 in assay [3] is 2.51 µM (active).

For the molecule `Cc1c(Cl)cccc1N=C([S-])/C(=C(\O)c1ccc(Cl)s1)[n+]1ccccc1`, the AC50 in assay [1] was 19.8 µM (active). Besides, the EC50 on Protein RecA was 12.9 µM (active).

By CC50 is commonly meant the concentration that lowers cell viability or growth by half. Regarding `N#C/C(=C\c1cc(Cl)c(OCc2ccc(Cl)cc2)c(Cl)c1)C(N)=O`, in assay [7], the CC50 was 36.8 µM (active). The AC50 in [1] was > 380 µM (inactive). Moreover, on Protein RecA, the EC50 was > 380 µM (inconclusive).

Take `CCCCCn1c(CN2CCCCC2C)nc2c1c(=O)n(C)c(=O)n2C` (stereo not given): the results for the AC50 at Cytochrome P450 2C19 and on Cytochrome P450 3A4 were 20 µM (inconclusive) and 5.01 µM (inconclusive), respectively. In addition, the IC50 in assay [3] was 13.2 µM (active).

On to `CNc1oc(Cc2cccc3ccccc23)nc1C#N`, for which the IC50 in assay [3] is 12.6 µM (active).

Turning to `COCc1n[nH]c2c1C(c1ccc(OC)cc1)C(C#N)=C(N)O2` (stereo not given), the AC50 in assay [1] is 25.8 µM (active). Moreover, the EC50 on Protein RecA was 6.79 µM (active).

On to `CC1CCN(CCNC(=O)C2CCCN(c3ncnc4c3nc3n4CCCCC3)C2)CC1` (stereo not given), for which the 50% inhibitory concentration (IC50) in assay [3] is 13.2 µM (active).

With `O=C(Cc1ccc(Cl)cc1)N/N=C/c1ccc(O)c(O)c1`, the IC50 in assay [2] was 19.7 µM (active).

Turning to `COc1ccc(NC(=O)c2cccc(OC(F)F)c2)cc1Cl`, the EC50 in [4] is 17.3 µM (active); in assay [5], 18.2 µM (active).

With `COc1ccc(NC(=S)N2CCc3ccccc32)cc1OC`, the EC50 in assay [4] and in assay [5] was > 112 µM (not active) throughout.

For `COc1cc(/C=N/NC(=O)c2cn(-c3cccc(C)n3)cn2)ccc1O`, the IC50 in assay [2] is 36.1 µM (active).

On to `O=c1c2sc3nc(N4CCOCC4)c4c(c3c2ncn1-c1ccccc1)CCCC4`, for which the concentration for a half-maximal effect (EC50) in assay [4] and in [5] was > 112 µM (not active) each time.
